According to patent US12539337B2 (priority 2013, dated 2026):
Entries after “also recorded” stand apart in the source; their conditions may differ.

How the values were obtained:
NMDARs = format: cell-based, rat; settings: memantine alone; read-out: IC50 for blocking NMDARs
Description: Primary cerebrocortical cultures were made from E16 rat pups and grown on 12-mm glass coverslips. Briefly, cortices were dissected from 1 to 2 days old rats and enzymatically treated (papain, 200 U/ml; 30 minutes, 37° C.). After mechanical dissociation in minimum essential medium (MEM; Gibco; Grand Island, NY, USA), the cells were plated into culture flasks and grown at 37° C. in a humidified 5% CO2/95% air atmosphere.
Whole-cell voltage-clamp recordings were performed from neurons after 14 days in vitro. The extracellular solution contained: 135 mM NaCl, 2.5 mM KCl, 2 mM CaCl2, 0-0.01 mM MgCl2, 1 mM NaHCO3, 0.34 mM Na2HPO4, 0.44 mM KH2PO4, 20 mM glucose, 10 mM Hepes, pH 7.4. Patch electrodes with a final tip resistance of 4-7 MΩ, were filled with a solution containing (in mM): 120 mM CsCl, 20 mM tetraethylammonium chloride (TEA-Cl), 10 mM Hepes, 2.25 mM EGTA, 1 mM CaCl2, 2 mM MgCl2, 0.001 mM and phalloidin, pH 7.4. pCLAMP 10 software (Molecular Devices; Sunnyvale, CA, USA) was used for data acquisition and analysis. All recordings were performed using an Axopatch 200B amplifier (Molecular Devices; Sunnyvale, CA, USA) at room temperature with a holding potential of −70 mV. […]
To evaluate their pharmacological profile, the effects of Au-Mem on NMDAR-mediated currents were evaluated in cerebrocortical neurons using patch-clamp whole-cell recordings. […]

sNMDARs = experiment: Whole-cell patch-clamp recordings of spontaneous NMDAR-mediated sEPSCs in cerebrocortical neurons; format: cell-based, rat; settings: free memantine at 10 μM
Description: Whole-cell voltage-clamp recordings were performed from neurons after 14 days in vitro. […] All recordings were performed using an Axopatch 200B amplifier (Molecular Devices; Sunnyvale, CA, USA) at room temperature with a holding potential of −70 mV. Currents were digitally sampled at 10-20 kHz and filtered at 2-5 kHz.
Currents were acquired using a Digidata 1322 interface and pClamp 10.1 software. All recordings were made at room temperature at a holding potential of −70 mV. The extracellular solution contained the following: 137 mM NaCl, 1 mM NaHCO3, 0.34 mM Na2HPO4, 5.36 mM KCl, 0.44 mM KH2PO4, 3 mM CaCl2, 5 mM HEPES, 22.2 mM glucose, 0.01 mM glycine, and 0.003 mM strychnine, pH adjusted to 7.2. […]
The spontaneous NMDAR-mediated sEPSCs are usually presented as bursts, with each burst consisting of multiple EPSCs. […] Then, the values for charge transfer of each NMDAR-mediated sEPSC starting from the peak of the first NMDAR-mediated sEPSC and continuing to the baseline were determined, which took about 2 seconds in the majority of analyzed sEPSCs. […] Additionally, the frequency and amplitude of NMDAR-mediated sEPSCs were calculated for each experimental condition during about 100 seconds of recording time. The mean amplitude was calculated by averaging the amplitude of the maximal NMDA-mediated current in each burst. […]

Compound: CC12CC3CC(C)(C1)CC(N)(C3)C2 [memantine, 3,5-dimethyladamantan-1-amine]
- IC50 (NMDARs): ~1 µM
- effect on synaptic activity (sEPSCs) (sNMDARs): almost completely inhibit; also recorded: did block it
